Literature values in PMC4594385 (Journal of Medical Physics / Association of Medical …, 2015).

Details: compared with femur uptake at 4 h; ref Banerjee et al. [1]

## O=P([O-])(O)CN(CCN(CP(=O)([O-])O)CP(=O)(O)O)CP(=O)([O-])O.[153Sm+3] [^153Sm-EDTMP]
  Bone uptake: 3.72 %ID/g
